In one experiment the target is T1, SpCHS1 (Salvia plebeia, UniProt A0AA50A905).
T1 construct: gene CHS1; ORF in pET28a, co-expressed in E. coli with RtTAL and Pt4CL (substrate supply)
T1 sequence (A0AA50A905 1-390): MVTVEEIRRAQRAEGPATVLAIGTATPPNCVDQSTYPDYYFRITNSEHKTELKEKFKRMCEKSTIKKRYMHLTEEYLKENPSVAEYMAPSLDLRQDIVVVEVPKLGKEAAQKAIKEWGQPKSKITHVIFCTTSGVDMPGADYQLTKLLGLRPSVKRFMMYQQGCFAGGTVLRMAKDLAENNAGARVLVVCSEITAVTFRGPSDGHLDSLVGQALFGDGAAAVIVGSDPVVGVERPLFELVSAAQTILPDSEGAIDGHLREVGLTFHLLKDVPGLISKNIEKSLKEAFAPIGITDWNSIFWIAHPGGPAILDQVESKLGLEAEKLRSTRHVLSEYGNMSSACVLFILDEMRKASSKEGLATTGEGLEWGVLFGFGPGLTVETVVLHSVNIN
Put plainly: HPLC-DAD / UPLC-Q-TOF-MS of E. coli culture extract. As to conditions: substrate formed in situ by co-expressed RtTAL and Pt4CL from fed tyrosine; product naringenin chalcone. It is filed as cell-based.

The target in a further experiment is T2, SpF6H1 (Salvia plebeia, UniProt A0AA49X7K6).
T2 construct: gene F6H1; ORF in pET32a (Trx/His tag), E. coli; co-expressed with AtCPR; with NADPH--cytochrome P450 reductase (Arabidopsis thaliana)
T2 sequence (A0AA49X7K6 1-521): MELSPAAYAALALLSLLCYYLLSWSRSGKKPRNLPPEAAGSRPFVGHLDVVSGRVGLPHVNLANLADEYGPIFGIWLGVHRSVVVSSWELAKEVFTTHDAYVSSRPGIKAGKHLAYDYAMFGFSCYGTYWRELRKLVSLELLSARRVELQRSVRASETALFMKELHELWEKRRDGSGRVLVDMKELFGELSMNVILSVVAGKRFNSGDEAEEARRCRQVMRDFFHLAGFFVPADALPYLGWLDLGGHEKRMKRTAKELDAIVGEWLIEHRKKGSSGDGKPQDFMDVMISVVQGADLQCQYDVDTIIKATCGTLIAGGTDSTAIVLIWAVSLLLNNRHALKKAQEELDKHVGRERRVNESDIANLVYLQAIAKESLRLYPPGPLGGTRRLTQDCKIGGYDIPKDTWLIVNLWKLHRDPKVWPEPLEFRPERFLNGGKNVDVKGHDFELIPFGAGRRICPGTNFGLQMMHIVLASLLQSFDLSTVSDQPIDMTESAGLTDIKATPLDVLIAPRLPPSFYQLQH
Put plainly: HPLC-DAD / UPLC-Q-TOF-MS product detection. Format: biochemical. As to conditions: 1 mM NADPH, 0.5 mM GSH, 100 mM Tris-HCl, 28 °C, 12 h; AtCPR co-expressed; product scutellarein.

Another experiment addresses T3, SpC4H (Salvia plebeia, UniProt A0AA50AF12).
T3 construct: gene C4H; ORF in pET32a (Trx/His tag), E. coli BL21(DE3), Ni-NTA purified; AtCPR added; with NADPH--cytochrome P450 reductase (Arabidopsis thaliana)
Put plainly: HPLC-DAD / UPLC-Q-TOF-MS product detection. Format: biochemical. As to conditions: 1 mM NADPH, 0.5 mM GSH, AtCPR added, 100 mM Tris-HCl, 28 °C, 12 h; product 4-coumaric acid.

For another experiment, the target named is T4, SpUGT3 (Salvia plebeia, UniProt A0AA49X848).
T4 construct: gene UGT3; ORF in pSJ8-MBP (MBP fusion), E. coli BL21(DE3), Ni-NTA purified
T4 sequence (A0AA49X848 1-469): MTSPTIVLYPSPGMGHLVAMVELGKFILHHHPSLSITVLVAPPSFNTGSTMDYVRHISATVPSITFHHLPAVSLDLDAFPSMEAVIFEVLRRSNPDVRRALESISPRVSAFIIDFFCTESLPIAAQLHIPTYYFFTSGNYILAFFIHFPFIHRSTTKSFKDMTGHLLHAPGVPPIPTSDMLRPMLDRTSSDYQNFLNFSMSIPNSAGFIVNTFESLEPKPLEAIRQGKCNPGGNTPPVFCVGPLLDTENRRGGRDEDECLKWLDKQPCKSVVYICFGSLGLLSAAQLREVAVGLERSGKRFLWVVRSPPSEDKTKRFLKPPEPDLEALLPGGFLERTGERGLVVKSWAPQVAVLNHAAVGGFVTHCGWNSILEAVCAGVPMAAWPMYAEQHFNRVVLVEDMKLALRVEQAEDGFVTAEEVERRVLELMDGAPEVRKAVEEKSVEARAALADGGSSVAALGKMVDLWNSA
Put plainly: HPLC-DAD / UPLC-Q-TOF-MS product detection. It is filed as biochemical. As to conditions: 1 mM UDP-glucose, 50 mM PBS, 30 °C, 4 h; product homoplantaginin.

In a further experiment the target is T5, SpUGT2 (Salvia plebeia, UniProt A0AA49XCW5).
T5 construct: gene UGT2; ORF in pSJ8-MBP (MBP fusion), E. coli BL21(DE3), Ni-NTA purified
T5 sequence (A0AA49XCW5 1-478): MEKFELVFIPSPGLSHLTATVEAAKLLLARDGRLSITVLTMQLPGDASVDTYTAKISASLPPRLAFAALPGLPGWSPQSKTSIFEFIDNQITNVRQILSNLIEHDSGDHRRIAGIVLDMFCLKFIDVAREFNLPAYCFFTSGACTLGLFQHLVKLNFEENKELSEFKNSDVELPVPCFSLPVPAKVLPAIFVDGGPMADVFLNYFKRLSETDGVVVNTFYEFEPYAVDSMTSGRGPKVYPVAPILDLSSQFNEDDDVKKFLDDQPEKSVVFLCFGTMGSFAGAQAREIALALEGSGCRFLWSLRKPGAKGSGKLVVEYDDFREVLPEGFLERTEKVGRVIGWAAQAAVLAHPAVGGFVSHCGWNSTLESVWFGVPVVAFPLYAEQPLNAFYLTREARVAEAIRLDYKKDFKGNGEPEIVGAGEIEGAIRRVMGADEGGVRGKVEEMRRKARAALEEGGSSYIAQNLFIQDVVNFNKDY
Put plainly: HPLC-DAD / UPLC-Q-TOF-MS product detection. It is filed as biochemical. As to conditions: 1 mM UDP-glucose, 50 mM PBS, 30 °C, 4 h; product homoplantaginin.

A further experiment has as its target T6, SpUGT1 (Salvia plebeia, UniProt A0AA49X7M2).
T6 construct: gene UGT1; ORF in pSJ8-MBP (MBP fusion), E. coli BL21(DE3), Ni-NTA purified
T6 sequence (A0AA49X7M2 1-450): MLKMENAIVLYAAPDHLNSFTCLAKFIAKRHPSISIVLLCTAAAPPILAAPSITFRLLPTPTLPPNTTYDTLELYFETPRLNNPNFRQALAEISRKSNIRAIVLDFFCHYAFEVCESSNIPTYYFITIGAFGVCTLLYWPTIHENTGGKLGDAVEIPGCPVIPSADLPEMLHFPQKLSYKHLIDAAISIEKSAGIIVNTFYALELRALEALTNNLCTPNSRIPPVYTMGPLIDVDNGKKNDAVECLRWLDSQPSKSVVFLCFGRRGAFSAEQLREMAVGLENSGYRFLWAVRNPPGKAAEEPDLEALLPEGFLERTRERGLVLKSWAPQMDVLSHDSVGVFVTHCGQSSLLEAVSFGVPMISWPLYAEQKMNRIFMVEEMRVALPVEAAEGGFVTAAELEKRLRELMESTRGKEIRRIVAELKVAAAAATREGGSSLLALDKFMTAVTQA
Put plainly: HPLC-DAD / UPLC-Q-TOF-MS product detection. Format: biochemical. As to conditions: 1 mM UDP-glucose, 50 mM PBS, 30 °C, 4 h; product homoplantaginin.

The target of the next experiment is T7, SpCHI (Salvia plebeia, UniProt A0AA49X7E2).
T7 construct: gene CHI; full ORF in pET28a (His tag), E. coli BL21(DE3), Ni-NTA purified
T7 sequence (A0AA49X7E2 1-225): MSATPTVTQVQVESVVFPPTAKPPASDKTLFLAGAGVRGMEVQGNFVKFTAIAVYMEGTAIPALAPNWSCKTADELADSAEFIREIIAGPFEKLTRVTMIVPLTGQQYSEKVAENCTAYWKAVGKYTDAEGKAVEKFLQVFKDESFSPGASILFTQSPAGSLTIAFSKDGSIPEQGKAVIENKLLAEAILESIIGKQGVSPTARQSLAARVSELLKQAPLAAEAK
Put plainly: HPLC-DAD / UPLC-Q-TOF-MS product detection. As to conditions: 100 mM PBS, 25 °C, 2 s; product naringenin. Format: biochemical.

For a further experiment, the target named is T8, SpFNS (Salvia plebeia, UniProt A0AA49X7D7).
T8 construct: gene FNS
Put plainly: HPLC-DAD / UPLC-Q-TOF-MS product detection. Format: biochemical. As to conditions: 1 mM NADPH, 0.5 mM GSH, 100 mM Tris-HCl, 28 °C, 12 h; AtCPR co-expressed; product apigenin.

Another experiment addresses T9, SpPAL (Salvia plebeia, UniProt A0AA50AET4).
T9 construct: gene PAL; full ORF in pET28a (His tag), E. coli BL21(DE3), Ni-NTA purified
Put plainly: HPLC-DAD / UPLC-Q-TOF-MS product detection. Format: biochemical. As to conditions: 100 mM Tris-HCl, 37 °C, 8 h; product cinnamic acid.

The target of another experiment is T10, SpF6OMT2 (Salvia plebeia, UniProt A0AA49X7F5).
T10 construct: gene F6OMT2; full ORF in pET28a (His tag), E. coli BL21(DE3), Ni-NTA purified
Put plainly: HPLC-DAD / UPLC-Q-TOF-MS product detection. It is filed as biochemical. As to conditions: 1 mM SAM, 1 mM MgCl2, 1 mM DTT, 100 mM Tris-HCl, 28 °C, 12 h; product hispidulin.

The target of a further experiment is T11, SpF6OMT1 (Salvia plebeia, UniProt A0AA49X7D9).
T11 construct: gene F6OMT1; full ORF in pET28a (His tag), E. coli BL21(DE3), Ni-NTA purified
Put plainly: HPLC-DAD / UPLC-Q-TOF-MS product detection. Format: biochemical. As to conditions: 1 mM SAM, 1 mM MgCl2, 1 mM DTT, 100 mM Tris-HCl, 28 °C, 12 h; product hispidulin.

T10 sequence (A0AA49X7F5 1-247): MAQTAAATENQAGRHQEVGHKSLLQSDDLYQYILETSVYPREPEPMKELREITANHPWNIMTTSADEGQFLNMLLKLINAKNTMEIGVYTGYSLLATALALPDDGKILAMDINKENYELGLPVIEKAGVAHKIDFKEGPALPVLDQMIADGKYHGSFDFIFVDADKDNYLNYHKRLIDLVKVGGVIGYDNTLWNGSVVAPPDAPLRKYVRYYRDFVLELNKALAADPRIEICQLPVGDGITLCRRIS
T3 sequence (A0AA50AF12 entry or part of it): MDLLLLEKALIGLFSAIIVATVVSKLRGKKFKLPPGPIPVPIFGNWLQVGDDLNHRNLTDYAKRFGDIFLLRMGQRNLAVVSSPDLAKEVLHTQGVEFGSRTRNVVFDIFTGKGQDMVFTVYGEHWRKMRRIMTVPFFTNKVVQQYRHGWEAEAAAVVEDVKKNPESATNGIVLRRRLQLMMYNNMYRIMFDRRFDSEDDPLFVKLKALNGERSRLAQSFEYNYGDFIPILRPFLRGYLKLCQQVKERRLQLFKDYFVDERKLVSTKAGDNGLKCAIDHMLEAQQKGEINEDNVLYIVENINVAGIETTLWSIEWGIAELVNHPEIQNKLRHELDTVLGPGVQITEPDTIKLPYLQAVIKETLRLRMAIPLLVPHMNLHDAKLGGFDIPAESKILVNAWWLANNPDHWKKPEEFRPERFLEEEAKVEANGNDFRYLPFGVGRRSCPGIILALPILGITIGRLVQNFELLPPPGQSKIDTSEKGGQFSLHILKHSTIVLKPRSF
T9 sequence (A0AA50AET4 1-710): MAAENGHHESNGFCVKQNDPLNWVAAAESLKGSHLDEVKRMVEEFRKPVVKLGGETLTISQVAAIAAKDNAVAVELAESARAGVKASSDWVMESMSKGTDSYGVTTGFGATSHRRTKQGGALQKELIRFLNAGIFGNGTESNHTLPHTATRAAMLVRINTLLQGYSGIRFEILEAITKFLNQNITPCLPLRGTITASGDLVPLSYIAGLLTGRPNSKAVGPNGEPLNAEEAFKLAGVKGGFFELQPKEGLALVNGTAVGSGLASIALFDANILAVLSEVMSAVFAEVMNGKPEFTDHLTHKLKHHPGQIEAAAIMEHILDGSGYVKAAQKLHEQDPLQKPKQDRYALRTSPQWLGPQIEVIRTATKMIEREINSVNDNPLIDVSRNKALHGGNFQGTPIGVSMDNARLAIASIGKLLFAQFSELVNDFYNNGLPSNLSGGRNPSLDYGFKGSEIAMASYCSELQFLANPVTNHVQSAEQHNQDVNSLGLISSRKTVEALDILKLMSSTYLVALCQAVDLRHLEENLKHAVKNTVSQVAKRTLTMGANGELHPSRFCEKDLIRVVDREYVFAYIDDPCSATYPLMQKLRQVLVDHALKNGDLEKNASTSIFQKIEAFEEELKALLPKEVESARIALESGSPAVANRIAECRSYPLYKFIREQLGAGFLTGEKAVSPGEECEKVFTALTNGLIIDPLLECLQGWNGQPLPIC
T8 sequence (A0AA49X7D7 1-507): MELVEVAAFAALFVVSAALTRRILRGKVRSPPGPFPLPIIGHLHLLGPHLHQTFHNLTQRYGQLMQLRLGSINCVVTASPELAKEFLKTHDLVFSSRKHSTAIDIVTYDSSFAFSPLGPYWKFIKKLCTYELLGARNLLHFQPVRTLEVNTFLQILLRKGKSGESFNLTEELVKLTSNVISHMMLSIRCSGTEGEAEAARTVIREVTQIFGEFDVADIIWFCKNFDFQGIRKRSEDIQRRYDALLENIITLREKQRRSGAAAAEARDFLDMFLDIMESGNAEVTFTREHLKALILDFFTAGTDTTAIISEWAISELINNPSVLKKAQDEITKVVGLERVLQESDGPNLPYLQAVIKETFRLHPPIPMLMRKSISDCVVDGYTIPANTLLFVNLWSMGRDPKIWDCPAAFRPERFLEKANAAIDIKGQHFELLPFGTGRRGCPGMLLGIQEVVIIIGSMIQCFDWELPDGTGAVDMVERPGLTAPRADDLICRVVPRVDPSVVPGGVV
T11 sequence (A0AA49X7D9 1-222): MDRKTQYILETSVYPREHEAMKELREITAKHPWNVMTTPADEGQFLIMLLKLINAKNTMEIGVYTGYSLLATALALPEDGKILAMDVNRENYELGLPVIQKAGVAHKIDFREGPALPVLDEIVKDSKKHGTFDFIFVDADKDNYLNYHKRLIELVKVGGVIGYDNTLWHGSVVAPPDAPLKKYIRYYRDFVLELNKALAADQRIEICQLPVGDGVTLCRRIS

As for `CC(C)(COP(=O)(O)OP(=O)(O)OC[C@H]1O[C@@H](n2cnc3c(N)ncnc32)[C@H](O)[C@@H]1OP(=O)(O)O)[C@@H](O)C(=O)NCCC(=O)NCCSC(=O)/C=C/c1ccc(O)cc1` [4-coumaryl-CoA], at SpCHS1, the “HPLC-DAD / UPLC-Q-TOF-MS of E. coli culture extract” value is reported as “providing a sufficient substrate for the catalytic reaction of SpCHS”. For the compound `O=c1cc(-c2ccc(O)cc2)oc2cc(O)cc(O)c12` [AG, apigenin], the “HPLC-DAD / UPLC-Q-TOF-MS product detection” value on SpF6H1 was “SpF6H1 produced scutellarein from apigenin, a precursor of hispidulin”. For `O=C(O)/C=C/c1ccccc1` [CiA, cinnamic acid], on SpC4H, the “HPLC-DAD / UPLC-Q-TOF-MS product detection” value is on record as “SpC4H was able to catalyze the production of 4-coumaric acid from cinnamic acid”. In the case of `COc1c(O)cc2oc(-c3ccc(O)cc3)cc(=O)c2c1O` [HD, hispidulin], the “HPLC-DAD / UPLC-Q-TOF-MS product detection” value is “SpUGT1, SpUGT2, and SpUGT3 produced homoplantaginin from hispidulin in vitro” on SpUGT3; “SpUGT1, SpUGT2, and SpUGT3 produced homoplantaginin from hispidulin in vitro” at SpUGT2; “SpUGT1, SpUGT2, and SpUGT3 produced homoplantaginin from hispidulin in vitro” at SpUGT1. As to `O=C(/C=C/c1ccc(O)cc1)c1c(O)cc(O)cc1O` [NC, naringenin chalcone], the “HPLC-DAD / UPLC-Q-TOF-MS product detection” value at SpCHI is “naringenin chalcone was completely consumed in the sample group to generate naringenin”. Consider `O=C1C[C@@H](c2ccc(O)cc2)Oc2cc(O)cc(O)c21` [NG, naringenin], for which the “HPLC-DAD / UPLC-Q-TOF-MS product detection” value at SpFNS is “SpFNS produced apigenin from naringenin”.

For the compound `N[C@@H](Cc1ccccc1)C(=O)O` [Phe, phenylalanine], the “HPLC-DAD / UPLC-Q-TOF-MS product detection” value at SpPAL was “SpPAL can catalyze the formation of cinnamic acid from phenylalanine”. Consider `O=c1cc(-c2ccc(O)cc2)oc2cc(O)c(O)c(O)c12` [SA, scutellarein], for which the “HPLC-DAD / UPLC-Q-TOF-MS product detection” value was “SpF6OMT1 and SpF6OMT2 converted scutellarein into hispidulin” on SpF6OMT2; “SpF6OMT1 and SpF6OMT2 converted scutellarein into hispidulin” at SpF6OMT1.

The values are drawn from article PMC10461478, “The chemical profiling of Salvia plebeia during different growth periods and the biosynthesis of its main flavonoids ingredients” (Frontiers in Plant Science, 2023).
